The results in this text go back to article PMC12668310, “High‐Throughput Synthesis and Screening of a Cyanimide Library Identifies Selective Inhibitors of ISG15‐Specific Protease mUSP18” (Angewandte Chemie (International Ed. in English), 2025).

The assay has as its target T1, mUSP18 (Mus musculus, UniProt Q9WTV6).
T1 construct: (46-368); His-tag (N); made in house
T1 sequence (Q9WTV6 46-368): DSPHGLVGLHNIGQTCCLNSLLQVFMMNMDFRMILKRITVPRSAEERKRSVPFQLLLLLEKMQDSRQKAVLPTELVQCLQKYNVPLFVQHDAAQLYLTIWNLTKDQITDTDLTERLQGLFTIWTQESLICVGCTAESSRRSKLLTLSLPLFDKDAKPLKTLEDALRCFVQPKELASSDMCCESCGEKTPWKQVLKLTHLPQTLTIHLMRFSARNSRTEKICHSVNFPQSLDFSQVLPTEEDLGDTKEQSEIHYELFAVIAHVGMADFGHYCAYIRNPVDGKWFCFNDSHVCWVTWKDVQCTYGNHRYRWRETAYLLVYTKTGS
The assay can be described thus: High-throughput screening, ISG15ct-RhoMP, single dose 1.25 µM. Format: biochemical, murine. The settings on record: mUSP18 %inhibition.

Where [1] appears, read: carboxylic acid (CA) building block alone, read-out: %inh CA only.
Setting [2] is: carboxylic acid (CA) with coupling reagents DIC/HOBT, read-out: %inh CA + DIC/HOBT.

Read-outs that look alike come from different tables or passages of the source.

Turning to `O=C(O)c1cccc(Oc2ccc(Cl)cc2)n1` [CA394], the inhibition at 1.25 µM reads like this: under setting [1], -5.76%; under setting [2], -1.48%.
For `O=C(O)c1cccnc1Oc1ccccc1Br` [CA395], in that order: -7.15% and -4.5%.
The matching figures for `O=C(O)c1cnn(-c2ccc(C(F)(F)F)cc2)c1` [CA396]: -5.61% and 1.41%.
On to `Cc1c[nH]c(=O)n1-c1cccc(C(=O)O)c1` [CA397], for which the inhibition at 1.25 µM runs as follows: under setting [1], -10.2%; under setting [2], -2.23%.
For `Cc1ccc(Oc2ccc(C(=O)O)nc2)cc1` [CA398], in that order: -2.93% and 2.57%.
The matching figures for `O=C(O)c1ccc(OCc2cccnc2)cc1` [CA399]: -10.1% and -0.24%.
The matching figures for `CCn1cc([1C@@H]2OCCC[1C@H]2C(=O)O)cn1` [CA400]: 8.86% and 4.12%.
`O=C(O)c1ccc(C#Cc2ccccc2)cc1` [CA401]: the inhibition at 1.25 µM under setting [1] was determined as 8.14% and the inhibition at 1.25 µM under setting [2] is -4.27%.
`O=C(O)C1CCN1C1CCCC1` (centres unmarked) [CA402]: the inhibition at 1.25 µM by setting is: under setting [1], 0.37%; under setting [2], -9.76%.
For `O=C(O)c1cc(S(=O)(=O)Nc2nccs2)ccc1F` [CA403], in that order: 0.9% and -6.97%.
The matching figures for `O=C(O)C1CCCN1C(=O)C1CC1` (centres unmarked) [CA404]: -4.12% and -12.2%.
Regarding `O=C(O)C(OC1CCOCC1)c1ccccc1` (centres unmarked) [CA405], the inhibition at 1.25 µM under setting [1] is -0.68% and the inhibition at 1.25 µM under setting [2] was -7.73%.
Consider `O=C(O)CCn1ccc(C(=O)N2CCCC2)n1` [CA406], for which the inhibition at 1.25 µM is, setting by setting: under setting [1], -2.83%; under setting [2], -11.1%.
For `O=C(O)c1ccccc1OCc1cccs1` [CA407], in that order: -5.56% and 33.9%.
In the case of `O=C(O)c1c[nH]nc1-c1ccncc1` [CA408], the inhibition at 1.25 µM under setting [1] is -2.77% and the inhibition at 1.25 µM under setting [2] is -3.75%.
Turning to `COc1ccccc1N1CC(C(=O)O)CCC1=O` (centres unmarked) [CA409], the inhibition at 1.25 µM runs as follows: under setting [1], -0.2%; under setting [2], -6.22%.
The matching figures for `Cn1nccc1[1C@@H]1C[1C@H]1C(=O)O` [CA410]: -4.36% and -9.17%.
The matching figures for `O=C(O)C1CCCN(c2ncccn2)C1` (centres unmarked) [CA411]: -4.05% and -6.74%.
The matching figures for `O=C(O)c1ccc(-c2ccncc2)[nH]c1=O` [CA412]: -8.86% and -7.67%.
As to `Cc1onc(C(=O)O)c1CN1CCN(C)CC1` [CA413], the inhibition at 1.25 µM runs as follows: under setting [1], -6.3%; under setting [2], -3.44%.
The matching figures for `O=C(O)c1cccn1Cc1ccccn1` [CA414]: -4.22% and -9%.
For `O=C(O)CCn1nc(C(F)(F)F)cc1C1CC1` [CA415], in that order: -5.69% and -4.3%.
Take `Cc1csc(-c2cccc(C(=O)O)c2)n1` [CA416]: the inhibition at 1.25 µM is, setting by setting: under setting [1], -3.85%; under setting [2], -4.32%.
The matching figures for `O=C(O)c1cc(COc2ccc(F)cc2F)on1` [CA417]: -8.45% and -7.97%.
For `CC(=O)N1CCN(S(=O)(=O)c2cccc(C(=O)O)c2)CC1` [CA418], in that order: -5% and -2.55%.
For `Cn1cc(-c2cc(C(=O)O)n[nH]2)cn1` [CA419], in that order: -7.23% and -1.62%.
Consider `Cc1cc(C)n(-c2ccc(Cl)c(C(=O)O)n2)n1` [CA420], for which the inhibition at 1.25 µM reads like this: under setting [1], -5.16%; under setting [2], -0.88%.
As to `O=C(O)Cc1csc(NS(=O)(=O)c2ccccc2)n1` [CA421], the inhibition at 1.25 µM by setting is: under setting [1], -4.79%; under setting [2], -0.58%.
